Legend:
Experiment in all cases: Kinase profiling in a biochemical assay panel (mobility shift assays and ELISA), %-inhibition at 1 μM; selectivity entropy
[1] = molecular target: T1, panel of more than 300 wild-type and mutant kinases (313 kinase panel) (Homo sapiens, UniProt Q13188); settings: kinase MST2; 1 μM
T1 sequence (Q13188 1-491): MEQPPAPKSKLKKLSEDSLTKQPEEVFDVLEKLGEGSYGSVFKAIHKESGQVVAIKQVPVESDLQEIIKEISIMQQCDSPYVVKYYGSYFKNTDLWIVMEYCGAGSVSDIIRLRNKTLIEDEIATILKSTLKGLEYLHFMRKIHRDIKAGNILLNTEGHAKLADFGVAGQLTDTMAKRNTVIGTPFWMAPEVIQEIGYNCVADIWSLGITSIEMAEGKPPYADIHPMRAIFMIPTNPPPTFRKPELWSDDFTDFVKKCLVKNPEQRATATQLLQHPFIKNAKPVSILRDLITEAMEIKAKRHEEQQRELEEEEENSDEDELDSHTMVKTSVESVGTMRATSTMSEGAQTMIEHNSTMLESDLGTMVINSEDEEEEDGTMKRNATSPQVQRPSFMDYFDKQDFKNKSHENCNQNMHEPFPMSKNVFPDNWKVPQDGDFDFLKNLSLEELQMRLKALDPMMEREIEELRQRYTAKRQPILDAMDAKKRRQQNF

[2] = molecular target: panel of more than 300 wild-type and mutant kinases (313 kinase panel) (Homo sapiens, UniProt P41240); settings: kinase CSK; compound at 1 μM
[3] = molecular target: panel of more than 300 wild-type and mutant kinases (313 kinase panel) (Homo sapiens, UniProt P10721, V560G); settings: kinase KIT(V560G); compound at 1 μM
[4] = molecular target: T2, panel of more than 300 wild-type and mutant kinases (313 kinase panel) (Homo sapiens, UniProt Q9HBY8); settings: kinase SGK2; 1 μM
T2 sequence (Q9HBY8 1-367): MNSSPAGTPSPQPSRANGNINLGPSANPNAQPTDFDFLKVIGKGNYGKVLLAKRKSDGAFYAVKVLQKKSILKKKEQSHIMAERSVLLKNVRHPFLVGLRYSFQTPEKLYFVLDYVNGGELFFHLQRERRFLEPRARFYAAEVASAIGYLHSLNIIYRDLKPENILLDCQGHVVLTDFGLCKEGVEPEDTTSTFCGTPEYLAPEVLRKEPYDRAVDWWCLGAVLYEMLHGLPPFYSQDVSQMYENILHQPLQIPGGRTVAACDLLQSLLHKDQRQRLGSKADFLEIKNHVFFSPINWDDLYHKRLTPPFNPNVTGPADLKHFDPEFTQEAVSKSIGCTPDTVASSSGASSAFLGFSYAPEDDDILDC

[5] = molecular target: panel of more than 300 wild-type and mutant kinases (313 kinase panel) (Homo sapiens, UniProt P08581)
[6] = molecular target: panel of more than 300 wild-type and mutant kinases (313 kinase panel) (Homo sapiens, UniProt P10721, V654A); settings: kinase KIT(V654A); compound at 1 μM
[7] = molecular target: T3, panel of more than 300 wild-type and mutant kinases (313 kinase panel) (Homo sapiens, UniProt Q15831)
T3 sequence (Q15831 1-433): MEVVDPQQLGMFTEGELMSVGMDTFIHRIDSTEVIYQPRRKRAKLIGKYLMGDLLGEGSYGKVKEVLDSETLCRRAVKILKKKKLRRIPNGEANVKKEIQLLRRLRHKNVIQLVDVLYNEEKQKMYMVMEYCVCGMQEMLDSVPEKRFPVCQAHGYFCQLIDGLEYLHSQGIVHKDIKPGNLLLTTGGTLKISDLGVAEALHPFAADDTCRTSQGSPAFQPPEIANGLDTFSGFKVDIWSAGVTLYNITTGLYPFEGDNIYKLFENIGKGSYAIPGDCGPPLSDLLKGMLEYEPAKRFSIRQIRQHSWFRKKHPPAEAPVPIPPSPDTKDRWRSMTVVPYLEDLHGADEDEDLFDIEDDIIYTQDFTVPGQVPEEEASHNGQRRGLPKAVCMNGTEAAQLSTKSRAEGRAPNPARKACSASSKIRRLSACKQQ

[8] = molecular target: panel of more than 300 wild-type and mutant kinases (313 kinase panel) (Homo sapiens, UniProt Q16644); settings: kinase MAPKAPK3; compound at 1 μM
[9] = molecular target: panel of more than 300 wild-type and mutant kinases (313 kinase panel) (Homo sapiens, UniProt P36507); settings: kinase MAP2K2; compound at 1 μM
[10] = molecular target: panel of more than 300 wild-type and mutant kinases (313 kinase panel) (Homo sapiens, UniProt P16591); settings: kinase FER; compound at 1 μM
Sequence of panel of more than 300 wild-type and mutant kinases (313 kinase panel) (Homo sapiens, UniProt P16591) (P16591 whole entry, change not shown): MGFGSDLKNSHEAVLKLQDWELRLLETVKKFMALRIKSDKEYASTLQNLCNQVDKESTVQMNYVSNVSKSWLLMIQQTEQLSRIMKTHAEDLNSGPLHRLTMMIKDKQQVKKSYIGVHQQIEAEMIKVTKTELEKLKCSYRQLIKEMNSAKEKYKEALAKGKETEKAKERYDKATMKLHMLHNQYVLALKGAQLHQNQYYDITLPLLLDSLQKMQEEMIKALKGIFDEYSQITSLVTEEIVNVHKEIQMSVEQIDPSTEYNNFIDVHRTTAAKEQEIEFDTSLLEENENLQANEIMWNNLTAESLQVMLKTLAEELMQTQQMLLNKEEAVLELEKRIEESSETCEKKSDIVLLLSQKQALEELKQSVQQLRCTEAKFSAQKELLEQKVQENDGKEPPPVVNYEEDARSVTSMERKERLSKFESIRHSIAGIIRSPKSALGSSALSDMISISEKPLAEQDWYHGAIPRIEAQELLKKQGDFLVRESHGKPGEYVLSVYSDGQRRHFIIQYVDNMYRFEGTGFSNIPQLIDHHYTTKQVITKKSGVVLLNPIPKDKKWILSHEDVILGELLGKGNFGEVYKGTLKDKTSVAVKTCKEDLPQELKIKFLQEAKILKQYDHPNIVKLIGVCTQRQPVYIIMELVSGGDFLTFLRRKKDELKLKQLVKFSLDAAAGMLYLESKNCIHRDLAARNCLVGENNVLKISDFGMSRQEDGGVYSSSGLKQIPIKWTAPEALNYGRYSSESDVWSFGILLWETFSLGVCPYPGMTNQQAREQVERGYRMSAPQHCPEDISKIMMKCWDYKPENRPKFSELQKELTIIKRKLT

Sequence of panel of more than 300 wild-type and mutant kinases (313 kinase panel) (Homo sapiens, UniProt P41240) (P41240 whole entry, stated change not applied): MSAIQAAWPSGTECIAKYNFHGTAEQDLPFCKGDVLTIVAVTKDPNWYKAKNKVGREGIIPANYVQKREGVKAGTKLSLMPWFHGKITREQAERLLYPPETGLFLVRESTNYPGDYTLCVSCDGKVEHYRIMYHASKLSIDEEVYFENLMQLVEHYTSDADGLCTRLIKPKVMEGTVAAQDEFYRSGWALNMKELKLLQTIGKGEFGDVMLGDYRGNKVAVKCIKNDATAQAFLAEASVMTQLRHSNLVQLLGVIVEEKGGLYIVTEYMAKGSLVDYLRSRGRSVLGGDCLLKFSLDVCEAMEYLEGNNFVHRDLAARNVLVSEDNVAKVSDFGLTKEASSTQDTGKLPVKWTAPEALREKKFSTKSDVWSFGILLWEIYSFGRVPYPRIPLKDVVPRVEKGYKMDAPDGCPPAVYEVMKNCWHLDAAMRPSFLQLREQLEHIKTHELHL
Sequence of panel of more than 300 wild-type and mutant kinases (313 kinase panel) (Homo sapiens, UniProt P10721, V654A) (P10721 26-976 V654A): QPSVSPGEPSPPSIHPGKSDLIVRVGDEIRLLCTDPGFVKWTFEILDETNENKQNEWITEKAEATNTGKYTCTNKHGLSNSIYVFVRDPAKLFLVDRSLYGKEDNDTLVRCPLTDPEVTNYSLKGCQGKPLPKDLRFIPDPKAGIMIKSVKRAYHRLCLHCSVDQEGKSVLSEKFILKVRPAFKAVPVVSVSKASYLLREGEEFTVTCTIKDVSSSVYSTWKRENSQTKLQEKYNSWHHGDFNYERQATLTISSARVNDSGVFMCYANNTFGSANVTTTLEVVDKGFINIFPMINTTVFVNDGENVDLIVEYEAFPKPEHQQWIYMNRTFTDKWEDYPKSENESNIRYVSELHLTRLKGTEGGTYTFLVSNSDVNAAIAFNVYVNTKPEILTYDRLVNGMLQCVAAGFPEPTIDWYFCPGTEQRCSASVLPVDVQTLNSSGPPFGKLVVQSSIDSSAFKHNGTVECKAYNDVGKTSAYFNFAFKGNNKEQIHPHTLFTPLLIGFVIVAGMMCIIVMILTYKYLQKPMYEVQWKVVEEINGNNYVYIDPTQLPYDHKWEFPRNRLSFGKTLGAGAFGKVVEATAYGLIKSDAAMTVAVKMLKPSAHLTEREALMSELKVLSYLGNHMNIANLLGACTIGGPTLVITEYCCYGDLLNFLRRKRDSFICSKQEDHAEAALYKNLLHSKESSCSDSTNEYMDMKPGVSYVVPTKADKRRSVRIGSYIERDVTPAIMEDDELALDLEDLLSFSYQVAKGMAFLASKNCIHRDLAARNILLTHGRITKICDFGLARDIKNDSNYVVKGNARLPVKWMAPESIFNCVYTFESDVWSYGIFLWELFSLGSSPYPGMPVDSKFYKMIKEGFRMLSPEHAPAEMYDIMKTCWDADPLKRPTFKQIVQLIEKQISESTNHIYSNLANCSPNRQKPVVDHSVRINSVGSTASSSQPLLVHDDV
Sequence of panel of more than 300 wild-type and mutant kinases (313 kinase panel) (Homo sapiens, UniProt P10721, V560G) (P10721 26-976 V560G): as the sequence (P10721 26-976 V654A) above, with V535G, A629V counted along it
Sequence of panel of more than 300 wild-type and mutant kinases (313 kinase panel) (Homo sapiens, UniProt Q16644) (Q16644 whole entry, change not shown): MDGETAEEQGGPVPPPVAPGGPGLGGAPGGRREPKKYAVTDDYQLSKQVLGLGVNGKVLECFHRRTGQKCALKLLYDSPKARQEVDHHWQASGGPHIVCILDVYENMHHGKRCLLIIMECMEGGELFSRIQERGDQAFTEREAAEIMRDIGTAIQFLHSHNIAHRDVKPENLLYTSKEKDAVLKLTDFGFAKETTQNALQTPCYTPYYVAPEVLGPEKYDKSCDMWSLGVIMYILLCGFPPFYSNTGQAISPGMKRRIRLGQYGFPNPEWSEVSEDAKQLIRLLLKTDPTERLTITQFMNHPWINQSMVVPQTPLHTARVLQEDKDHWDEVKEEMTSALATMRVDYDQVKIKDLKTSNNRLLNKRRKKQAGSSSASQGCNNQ

N#CC[C@H](C1CCCC1)n1cc(-c2ncnc3[nH]ccc23)cn1 [ruxolitinib]
%-inhibition of MST2 [1]: 3% | %-inhibition of CSK [2]: -0.827% | %-inhibition of KIT(V560G) [3]: -7% | %-inhibition of SGK2 [4]: -1.48% | %-inhibition of MET ([5]; 1 µM): -3.54% | %-inhibition of KIT(V654A) [6]: -10% | %-inhibition of LKB1 ([7]; 1 µM): 0.546% | %-inhibition of MAPKAPK3 [8]: -13% | %-inhibition of MAP2K2 [9]: 12% | %-inhibition of FER [10]: 33%

CO[C@H]1C[C@@H]2CC[C@@H](C)[C@@](O)(O2)C(=O)C(=O)N2CCCC[C@H]2C(=O)O[C@H]([C@H](C)C[C@@H]2CC[C@@H](OCCO)[C@H](OC)C2)CC(=O)[C@H](C)/C=C(\C)[C@@H](O)[C@@H](OC)C(=O)[C@H](C)C[C@H](C)/C=C/C=C/C=C/1C [everolimus]
%-inhibition of MST2 [1]: -2.3% | %-inhibition of CSK [2]: -7% | %-inhibition of KIT(V560G) [3]: -6% | %-inhibition of SGK2 [4]: -2% | %-inhibition of MET ([5]; kinase MET, compound at 1 μM): -4% | %-inhibition of KIT(V654A) [6]: -3.52% | %-inhibition of LKB1 ([7]; kinase LKB1, compound at 1 μM): -9% | %-inhibition of MAPKAPK3 [8]: -15% | %-inhibition of MAP2K2 [9]: 11% | %-inhibition of FER [10]: -0.138%

O=S(=O)(c1cccc2cnccc12)N1CCCNCC1 [fasudil]
%-inhibition of MST2 [1]: 1.77% | %-inhibition of CSK [2]: -3.28% | %-inhibition of KIT(V560G) [3]: 0.322% | %-inhibition of SGK2 [4]: -0.764% | %-inhibition of MET ([5]; kinase MET, compound at 1 μM): -4% | %-inhibition of KIT(V654A) [6]: -4% | %-inhibition of LKB1 ([7]; kinase LKB1, compound at 1 μM): 6% | %-inhibition of MAPKAPK3 [8]: -14% | %-inhibition of MAP2K2 [9]: 13% | %-inhibition of FER [10]: -3%
